Data taken from ChEMBL document CHEMBL1201862, “PubChem BioAssay data set” (2004).
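Briefly, cells in 96-well plates were exposed to five compound concentrations for 48 h, and endpoints were estimated by linear interpolation. GI50: concentration for 50% inhibition of growth.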 Activity calls are given as the source filed them. Rule as the data show it: active = GI50 up to about 1.1 µM and inactive = higher.

Experiments:
Assay in all cases: DTP human tumour cell line panel, 48 h
MDA-N = test system: MDA-N
CCRF-CEM = test system: CCRF-CEM
HCC 2998 = test system: HCC 2998
PC-3 = test system: PC-3
SF-268 = test system: SF-268
UACC-257 = test system: UACC-257
KM12 = test system: KM12
SR = test system: SR
T47D = test system: T47D
MCF7 = test system: MCF7
HCT-116 = test system: HCT-116
CAKI-1 = test system: CAKI-1
SN12C = test system: SN12C
HOP-92 = test system: HOP-92
HL-60 = test system: HL-60
UACC-62 = test system: UACC-62
HCT-15 = test system: HCT-15
SK-OV-3 = test system: SK-OV-3
NCI-H23 = test system: NCI-H23

SMILES | GI50 (MDA-N) | GI50 (CCRF-CEM) | GI50 (HCC 2998) | GI50 (PC-3) | GI50 (SF-268) | GI50 (UACC-257) | GI50 (KM12) | GI50 (SR) | GI50 (T47D) | GI50 (MCF7) | GI50 (HCT-116) | GI50 (CAKI-1) | GI50 (SN12C) | GI50 (HOP-92) | GI50 (HL-60) | GI50 (UACC-62) | GI50 (HCT-15) | GI50 (SK-OV-3) | GI50 (NCI-H23)
CC(C)(C)N1Cc2ccccc2/C(=C/Sc2ccccc2)C1=O | 6.55 µM (inactive) | 5.25 µM (inactive) | 18.2 µM (inactive) | 12.6 µM (inactive) | 2.44 µM (inactive) | 14.3 µM (inactive) | 17 µM (inactive) | 2.64 µM (inactive) | 16.6 µM (inactive) | 7.19 µM (inactive) | 7.03 µM (inactive) | 16.6 µM (inactive) | 8.17 µM (inactive) | 13.3 µM (inactive) | 13.5 µM (inactive) | 7.69 µM (inactive) | 12.9 µM | 17.4 µM (inactive) | 6.84 µM (inactive)
COc1ccc2c(c1OC)CN1CCc3cc4c(cc3C1C2)OCO4 (stereo not given) [TETRAHYDROBERBERINE] | > 100 µM (inactive) | – | > 100 µM (inactive) | > 100 µM (inactive) | > 100 µM (inactive) | > 100 µM (inactive) | > 100 µM (inactive) | > 100 µM (inactive) | > 100 µM (inactive) | > 100 µM (inactive) | > 100 µM (inactive) | > 100 µM (inactive) | > 100 µM (inactive) | > 100 µM (inactive) | > 100 µM (inactive) | > 100 µM (inactive) | > 100 µM | > 100 µM (inactive) | > 100 µM (inactive)
CSc1c(C(=O)Nc2ccc(C)cc2)c(N)n(N)c(=O)c1C#N | > 100 µM (inactive) | > 100 µM (inactive) | > 100 µM (inactive) | > 100 µM (inactive) | > 100 µM (inactive) | > 100 µM (inactive) | > 100 µM (inactive) | > 100 µM (inactive) | > 100 µM (inactive) | > 100 µM (inactive) | > 100 µM (inactive) | > 100 µM (inactive) | > 100 µM (inactive) | – | > 100 µM (inactive) | > 100 µM (inactive) | > 100 µM | > 100 µM (inactive) | > 100 µM (inactive)
COC(NC(=O)Nc1ccc(C)cc1)(C(F)(F)F)C(F)(F)F | 26.4 µM (inactive) | 2.67 µM (inactive) | – | 13.9 µM (inactive) | 40.4 µM (inactive) | – | 34.7 µM (inactive) | 30.9 µM (inactive) | 18.7 µM (inactive) | 41.3 µM (inactive) | 29.3 µM (inactive) | – | 28.1 µM (inactive) | 33 µM (inactive) | > 100 µM (inactive) | 10.6 µM (inactive) | – | 26.1 µM (inactive) | 30.1 µM (inactive)
N=C(CSS(=O)(=O)O)NC1CC2CCC1C2 (stereo not given) | > 100 µM (inactive) | > 100 µM (inactive) | – | > 100 µM (inactive) | > 100 µM (inactive) | > 100 µM (inactive) | > 100 µM (inactive) | > 100 µM (inactive) | 71.8 µM (inactive) | > 100 µM (inactive) | > 100 µM (inactive) | > 100 µM (inactive) | > 100 µM (inactive) | > 100 µM (inactive) | > 100 µM (inactive) | > 100 µM (inactive) | > 100 µM | > 100 µM (inactive) | > 100 µM (inactive)
CCc1c(CNC2=NCCN2)c(CC)c(CNC2=NCCN2)c(CC)c1CNC1=NCCN1 | > 100 µM (inactive) | > 100 µM (inactive) | > 100 µM (inactive) | > 100 µM (inactive) | > 100 µM (inactive) | > 100 µM (inactive) | > 100 µM (inactive) | > 100 µM (inactive) | > 100 µM (inactive) | > 100 µM (inactive) | > 100 µM (inactive) | > 100 µM (inactive) | > 100 µM (inactive) | > 100 µM (inactive) | – | > 100 µM (inactive) | > 100 µM | > 100 µM (inactive) | > 100 µM (inactive)
CC(=O)NC1(C)C(C)C2CC1C(C)C2(C)C (stereo not given) | > 100 µM (inactive) | > 100 µM (inactive) | > 100 µM (inactive) | > 100 µM (inactive) | > 100 µM (inactive) | > 100 µM (inactive) | > 100 µM (inactive) | > 100 µM (inactive) | > 100 µM (inactive) | > 100 µM (inactive) | > 100 µM (inactive) | > 100 µM (inactive) | > 100 µM (inactive) | > 100 µM (inactive) | > 100 µM (inactive) | > 100 µM (inactive) | – | > 100 µM (inactive) | > 100 µM (inactive)
O=C([O-])C(O)C(O)C(=O)O.[K+] (stereo not given) [POTASSIUM HYDROGENTARTRATE] | > 100 µM (inactive) | > 100 µM (inactive) | – | > 100 µM (inactive) | > 100 µM (inactive) | > 100 µM (inactive) | > 100 µM (inactive) | > 100 µM (inactive) | > 100 µM (inactive) | > 100 µM (inactive) | > 100 µM (inactive) | > 100 µM (inactive) | > 100 µM (inactive) | > 100 µM (inactive) | > 100 µM (inactive) | > 100 µM (inactive) | > 100 µM | > 100 µM (inactive) | –
O=C1CCC2(CC1CC[S+]([O-])c1ccccc1)OCCO2 (stereo not given) | > 100 µM (inactive) | > 100 µM (inactive) | > 100 µM (inactive) | > 100 µM (inactive) | > 100 µM (inactive) | > 100 µM (inactive) | > 100 µM (inactive) | > 100 µM (inactive) | > 100 µM (inactive) | > 100 µM (inactive) | – | > 100 µM (inactive) | – | > 100 µM (inactive) | 89.7 µM (inactive) | > 100 µM (inactive) | > 100 µM | > 100 µM (inactive) | > 100 µM (inactive)
N=C1C(O)C2(I)c3ccccc3N3C(=N)C(O)C4c5ccccc5N1C4C32 (stereo not given) | 42.7 µM (inactive) | 2.3 µM (inactive) | – | 41.7 µM (inactive) | > 100 µM (inactive) | > 100 µM (inactive) | 15.1 µM (inactive) | 34.3 µM (inactive) | > 100 µM (inactive) | 19.6 µM (inactive) | 36.7 µM (inactive) | 93.5 µM (inactive) | 54.3 µM (inactive) | 37.4 µM (inactive) | 20.2 µM (inactive) | > 100 µM (inactive) | 32.3 µM | 40.6 µM (inactive) | 35.6 µM (inactive)
Cc1cc2c(c(=O)o1)C1=S(SC(c3ccccc3)=C1)S2 (stereo not given) | > 100 µM (inactive) | > 100 µM (inactive) | – | 24.4 µM (inactive) | 45.7 µM (inactive) | > 100 µM (inactive) | 84.3 µM (inactive) | 18.3 µM (inactive) | 36.9 µM (inactive) | 29.6 µM (inactive) | 22.8 µM (inactive) | – | 67.3 µM (inactive) | 20.8 µM (inactive) | – | 39.2 µM (inactive) | > 100 µM | 23.8 µM (inactive) | 78.9 µM (inactive)
COCOc1cc(OC)ccc1C=O | 5.58 µM (inactive) | 20.7 µM (inactive) | 24.2 µM (inactive) | 21.8 µM (inactive) | 64.9 µM (inactive) | 28.6 µM (inactive) | 34 µM (inactive) | 11.3 µM (inactive) | 44.7 µM (inactive) | 24.5 µM (inactive) | 33.7 µM (inactive) | 86.9 µM (inactive) | 34.5 µM (inactive) | – | 26.7 µM (inactive) | 54.2 µM (inactive) | 36.4 µM | 62.4 µM (inactive) | 35.6 µM (inactive)
N#C[C@H](c1nc2ccccc2[nH]1)c1nc2ccccc2nc1Cl | 16.7 µM (inactive) | 2.64 µM (inactive) | > 40.6 µM (inactive) | > 25.9 µM (inactive) | – | > 38.7 µM (inactive) | 4.35 µM (inactive) | 3.09 µM (inactive) | 3.96 µM (inactive) | > 26 µM (inactive) | 6.25 µM (inactive) | 4.68 µM (inactive) | 12.7 µM (inactive) | > 29 µM (inactive) | 0.881 µM (active) | – | – | > 53.8 µM (inactive) | > 34.3 µM (inactive)
NC1=CN2c3ccccc3N(CC(=O)N3CCOCC3)C2C=C1 (stereo not given) | > 100 µM (inactive) | > 100 µM (inactive) | – | > 100 µM (inactive) | > 100 µM (inactive) | > 100 µM (inactive) | > 100 µM (inactive) | > 100 µM (inactive) | > 100 µM (inactive) | > 100 µM (inactive) | > 100 µM (inactive) | > 100 µM (inactive) | > 100 µM (inactive) | > 100 µM (inactive) | > 100 µM (inactive) | > 100 µM (inactive) | > 100 µM | > 100 µM (inactive) | > 100 µM (inactive)
CC1(C)OCC(C2OC(On3nnc4ccc(Cl)cc43)C3OC(C)(C)OC23)O1 (stereo not given) | > 100 µM (inactive) | > 100 µM (inactive) | – | > 100 µM (inactive) | > 100 µM (inactive) | > 100 µM (inactive) | > 100 µM (inactive) | > 100 µM (inactive) | > 100 µM (inactive) | > 100 µM (inactive) | > 100 µM (inactive) | > 100 µM (inactive) | > 100 µM (inactive) | > 100 µM (inactive) | > 100 µM (inactive) | > 100 µM (inactive) | > 100 µM | > 100 µM (inactive) | > 100 µM (inactive)
CC1(C)C2CCC1(C)C(OC(=O)/C=C/C(=O)OC1CC3CCC1(C)C3(C)C)C2 (stereo not given) | 60.4 µM (inactive) | 11.4 µM (inactive) | 64.4 µM (inactive) | > 100 µM (inactive) | > 100 µM (inactive) | 31 µM (inactive) | > 100 µM (inactive) | 20.1 µM (inactive) | > 100 µM (inactive) | 19.3 µM (inactive) | 56.9 µM (inactive) | > 100 µM (inactive) | 82.2 µM (inactive) | 24.8 µM (inactive) | 16.9 µM (inactive) | 31.2 µM (inactive) | 68.7 µM | – | 47.9 µM (inactive)
